# Data published in US20060135472A1, “Use of water-soluble polymers to improve stability of diiodomethyl-para-tolylsulfone in complex matrices” (priority 2004, published 2006).
# How the values were obtained:
# [1] = Stability of DITS in a generic shampoo matrix after storage at 40° C. for 8 weeks, by HPLC; type: physicochemical
# Method: All analytical data were obtained by high performance liquid chromatography (“HPLC”) analysis for content for diiodomethyl-p-tolylsulfone (DITS) and monoiodomethyl-p-tolylsulfone (MITS). Analysis was done on an Agilent HP system using a Phenomenex Bondclone 10 micron C18 reverse phase column (300×3.9 mm, 10 microns) at a flow rate of 2 mL/min, isocratic 55% acetonitrile in water for 17 min. Under these conditions DITS elutes at 3.9-4.3 min and MITS elutes at 2.9-3.3 min, depending on the shampoo matrix. […]
# To a 250 mL glass jar were added 24.81 g water and 0.2526 g SL 400. The mixture was stirred vigorously for 1.5 h. Then, 1.0302 g milled AMICAL™ diiodomethyl-para-tolylsulfone was added, and the mixture was stirred for an additional 1.5 hours. After that, the premix was heated to 68° C. in a hot water bath, and a pre-blended mixture of Standapol* EA-3 (32.98 g), Standapol* A (11.16 g), and LAA (16.70 g) was added with agitation. 12.9 g of DI water was added next, and stirring was continued in the hot water bath. After 10 min, […] to adjust the pH. After an additional 10 min, the temperature of the mixture was recorded (68° C.) and the heating was stopped. The mixture was stirred on high speed for another hour, until it cooled. At that point, 0.31 g Glydant* and 0.30 g fragrance were added, and the sample was adjusted with water to 100 g formulation. Stirring continued for another hour. […]
# This procedure was followed for all the polymers listed in Table 1, at the stated polymer concentration. In all cases, AMICAL™ 48 milled to a D50=2 microns was used (diiodomethyl-p-tolylsulfone content 92.5%). Detailed here is the example involving SOFTCAT™ SL 400 at 0.25% concentration.
# To a 250 mL glass jar were added 24.82 g water and 0.2644 g SOFTCAT™ SL 400. The mixture was stirred vigorously for 1.5 h. Separately, in a 250 mL beaker were combined Standapol* EA-3 (33.57 g), Standapol* A (11.08 g), and LAA (16.13 g). The mixture was stirred vigorously using an overhead stirrer, and after 10 min, 1.0120 g milled DITS (AMICAL™ 48) was added, followed by 5.0 g water. The DITS-surfactant blend was stirred for 1.25 hours. After that, the DITS—surfactant blend was added with agitation to the polymer solution which had been heated to 58° C. in a hot water bath. 8.12 g of deionized water was added next, and stirring was continued in the hot water bath. After 10 min, 1 mL of a 10% aqueous citric acid solution was added to adjust the pH. After an additional 15 min, the temperature of the mixture was recorded (58° C.) and the heating was stopped. The mixture was stirred on high speed for another hour, until it cooled. At that point, 0.44 g Glydant* and 0.3 g fragrance were added, and the sample was adjusted with water to 100 g formulation. […]
# [2] = cited from earlier work
# [3] = tested on: fungi; conditions: wide variety of fungi; cited from earlier work
smiles,measurement,setting,value
"Cc1ccc(S(=O)(=O)C(I)I)cc1 [DITS, diiodomethyl-para-tolylsulfone]",DITS content after storage (HPLC),"[1]; Example 4, no polymer control, 8 week at 40° C.",0.44%
same,DITS content at time zero (HPLC),"[1]; Example 4, no polymer control, time zero",1.02%
same,decomposition,"[1]; control samples formulated without polymer, shampoo matrix, 8 weeks at 40° C.",~60%
same,% DITS left when added to surfactant blend,"[1]; generic shampoo matrix, 40° C. for 8 weeks, no polymer (control, Example 4)",43.2%
same,water solubility,[2],less than 10 ppm
same,minimum inhibitory concentration,[3],less than 10 ppm
